{"source": "patent EP0126580B1", "about": "(priority 1983, dated 1984)", "settings": "rat, in vivo"}
{"smiles": "C[n+]1ccccc1/C=N/O", "note": "[2-PAMCl, 2-pralidoxime chloride]", "values": [{"measurement": "lethality", "result": "fatal to all rats"}, {"measurement": "time in which the blood concentration drops below therapeutic level (TL)", "result": "2 to 3", "unit": "h"}, {"measurement": "time therapeutic plasma drug level maintained", "result": "2-1/4 hours"}, {"measurement": "time to death after injection", "result": "≤ 30", "unit": "min"}, {"measurement": "blood drug level achieved", "setting": "im", "result": 20000, "unit": "ng/mL"}]}
